Measurements reported in US20110217715A1, “GENE EXPRESSION IN DUCHENNE MUSCULAR DYSTROPHY” (CHILDREN'S HOSPITAL MEDICAL CENTER, priority 2008, published 2011).

Tested on: mRNA expression in peripheral blood of individuals with DMD
Assay: Whole-blood gene expression microarray: DMD administered deflazacort vs DMD administered prednisone
Assay type: in vivo, human
Description: Fifteen ml of blood was collected from each individual into 6 PAXgene® Vacutainer® tubes (PreAnalytiX, Germany) by antecubital fossa venipuncture. PAXgene® tubes contain a proprietary reagent that immediately stabilizes RNA, thus reducing RNA degradation and minimizing gene expression changes following phlebotomy. The tubes were then inverted 20 times, then remained undisturbed for 2 h at room temperature (about 19° C. to about 22° C.), and then stored at -70° C. until processed. Total RNA was isolated using the Paxgene® blood RNA kit (PreAnalytiX, Germany) according to the manufacturers instructions. The RNA isolated is from all cells in whole blood. Typical yields of total RNA isolated from about 7.5 ml of human whole blood were between 10 μg RNA and 40 μg RNA. RNA quality and purity was analyzed by spectrophotometry using the Nanodrop ND-1000, and RNA integrity was analyzed using the Agilent 2100 Bioanalyzer. […] Sample labeling, hybridization to chips, and image scanning were performed using standard Affymetrix protocols. For each whole blood sample from control individuals and individuals with DMD, total RNA was labeled using the One-Cycle Target Labeling protocol and hybridized to the arrays. […] Double-stranded cDNA synthesis, biotin-labeled cRNA synthesis, and cRNA fragmentation were performed according to the Affymetrix GeneChip Eukaryotic Expression Analysis protocol. The labeled, fragmented cRNA (15 μg) was hybridized at 45° C. overnight. After hybridization, the array was washed and stained. The arrays were scanned with an argon-ion laser at λ=570 nm, with a resolution of 3 μm/pixel (Affymetrix, Inc.). After scanning the array, the raw probe level values for each probe were saved in Affymetrix.cel files. […] Statistical analyses, including t-test analyses, unsupervised hierarchical clustering, and principal component analyses were conducted using Genespring 7.2 software ([…]® 7, Silicon Genetics, Redwood City Calif.). […] Corrections for multiple comparisons used a Benjamini-Hochberg False Discovery Rate (FDR) of 0.05, disclosed in Tang et al., J Cereb Blood Flow Metab 26 (2006) 1089, which is expressly incorporated by reference herein in its entirety. […] Sample processing and array hybridization, probe-level data analysis, and statistical analysis were identical to Example 1.

## CC(=O)OCC(=O)[C@@]12N=C(C)O[C@@H]1C[C@H]1[C@@H]3CCC4=CC(=O)C=C[C@]4(C)[C@H]3[C@@H](O)C[C@@]12C [deflazacort]
Gene PECAM1, Genbank AA702701, Nucleic Acid No. 2155
  p-value: 0.00909
Gene PECAM1, Genbank M37780, Nucleic Acid No. 2154
  p-value: 0.00421
Gene PF4V1, Genbank NM_002620, Nucleic Acid No. 2156
  p-value: 0.0164
Gene PFKFB3, Genbank NM_004566, Nucleic Acid No. 2157
  p-value: 0.0338
Gene PHACTR2, Genbank AA551142, Nucleic Acid No. 2158
  p-value: 0.039
Gene PHACTR2, Genbank NM_014721, Nucleic Acid No. 2159
  p-value: 0.0451
Gene PHCA, Genbank R12678, Nucleic Acid No. 2160
  p-value: 0.0221
Gene PHF21A, Genbank BC015714, Nucleic Acid No. 2161
  p-value: 0.0231
Gene PHGDHL1, Genbank AF339764, Nucleic Acid No. 2162
  p-value: 0.0444
Gene PIAS1, Genbank AI732802, Nucleic Acid No. 2163
  p-value: 0.0349
Gene PICALM, Genbank AL135735, Nucleic Acid No. 2164
  p-value: 0.0165
Gene PICALM, Genbank AV722190, Nucleic Acid No. 762
  p-value: 0.0363
Gene PLEK, Genbank NM_002664, Nucleic Acid No. 2165
  p-value: 0.000252
Gene PLEKHA2, Genbank BF347859, Nucleic Acid No. 886
  p-value: 0.0183
Gene PLEKHM1, Genbank AB002354, Nucleic Acid No. 2166
  p-value: 0.0134
Gene PLSCR1, Genbank AI825926, Nucleic Acid No. 2167
  p-value: 0.0487
Gene PLXNB2, Genbank BC004542, Nucleic Acid No. 2168
  p-value: 0.0177
Gene PPGB, Genbank NM_000308, Nucleic Acid No. 2170
  p-value: 0.0193
Gene PPIG, Genbank AW970944, Nucleic Acid No. 2171
  p-value: 0.011
Gene PPM1F, Genbank BC013798, Nucleic Acid No. 2172
  p-value: 0.0208
Gene PPP3CA, Genbank AA532718, Nucleic Acid No. 2173
  p-value: 0.0165
Gene PRKACA, Genbank NM_002730, Nucleic Acid No. 2174
  p-value: 0.00184
Gene PRKAR1A, Genbank AI682905, Nucleic Acid No. 2175
  p-value: 0.0262
Gene PRKAR2B, Genbank NM_002736, Nucleic Acid No. 1688
  p-value: 0.0441
Gene PRKCD, Genbank NM_006254, Nucleic Acid No. 2176
  p-value: 0.0077
Gene PROK2, Genbank AF182069, Nucleic Acid No. 2177
  p-value: 0.0338
Gene PSENEN, Genbank NM_018468, Nucleic Acid No. 2178
  p-value: 0.0201
Gene PTGS1, Genbank NM_000962, Nucleic Acid No. 329 (first entry)
  p-value: 0.0419
Gene PTGS1, Genbank NM_000962, Nucleic Acid No. 329 (second entry)
  p-value: 0.0226
Gene PTGS1, Genbank S36219, Nucleic Acid No. 1667
  p-value: 0.0474
Gene PTGS2, Genbank AY151286, Nucleic Acid No. 2179
  p-value: 0.0187
Gene PTPN12, Genbank AL079909, Nucleic Acid No. 2180
  p-value: 0.00163
Gene PTPRE, Genbank AA775177, Nucleic Acid No. 2181
  p-value: 0.0161
Gene RAB8A, Genbank BC002977, Nucleic Acid No. 2185
  p-value: 0.00561
Gene RAB11FIP1, Genbank NM_025151, Nucleic Acid No. 2182
  p-value: 0.0397
Gene RAB11FIP4, Genbank BG248313, Nucleic Acid No. 465
  p-value: 0.047
Gene RAB18, Genbank AU145607, Nucleic Acid No. 2183
  p-value: 0.0414
Gene RAB31, Genbank NM_006868, Nucleic Acid No. 2184
  p-value: 0.0378
Gene RAC1, Genbank AJ012502, Nucleic Acid No. 551
  p-value: 0.0328
Gene RAI17, Genbank AF070622, Nucleic Acid No. 1313
  p-value: 0.0318
Gene RAP1A, Genbank AW793677, Nucleic Acid No. 2186
  p-value: 0.0194
Gene RAP80, Genbank AF113675, Nucleic Acid No. 2187
  p-value: 0.00717
Gene RARA, Genbank AJ417079, Nucleic Acid No. 2188
  p-value: 0.00262
Gene RASA1, Genbank AK021812, Nucleic Acid No. 2189
  p-value: 0.0372
Gene RBBP5, Genbank NM_005057, Nucleic Acid No. 2190
  p-value: 0.0383
Gene REL, Genbank NM_002908, Nucleic Acid No. 2191
  p-value: 0.0166
Gene RERE, Genbank H71242, Nucleic Acid No. 2192
  p-value: 0.0354
Gene RFWD2, Genbank BF725688, Nucleic Acid No. 2193
  p-value: 0.0334
Gene RFX2, Genbank AK024288, Nucleic Acid No. 2194
  p-value: 0.0472
Gene RG9MTD3, Genbank AI214944, Nucleic Acid No. 2195
  p-value: 0.0449
Gene RHOQ, Genbank BC033251, Nucleic Acid No. 2196
  p-value: 0.0402
Gene RIN3, Genbank AA625133, Nucleic Acid No. 2197
  p-value: 0.0322
Gene RIT1, Genbank AL037450, Nucleic Acid No. 1675
  p-value: 0.0214
Gene RNF24, Genbank BC000213, Nucleic Acid No. 2198
  p-value: 0.0415
Gene ROCK1, Genbank AL050032, Nucleic Acid No. 2199
  p-value: 0.0356
Gene RSU1, Genbank AW515913, Nucleic Acid No. 2200
  p-value: 0.0152
Gene RUFY1, Genbank NM_025158, Nucleic Acid No. 2201
  p-value: 0.0258
Gene RUFY2, Genbank NM_017987, Nucleic Acid No. 2202
  p-value: 0.00853
Gene SEC14L1, Genbank NM_003003, Nucleic Acid No. 2203
  p-value: 0.0303
Gene SEC23B, Genbank BC005032, Nucleic Acid No. 2204
  p-value: 0.0301
Gene SECTM1, Genbank BF939675, Nucleic Acid No. 2205
  p-value: 0.0499
Gene SERPINA1, Genbank AF119873, Nucleic Acid No. 2207
  p-value: 0.0459
Gene SERPINA1, Genbank NM_000295, Nucleic Acid No. 2206
  p-value: 0.022
Gene SF3A2, Genbank L21990, Nucleic Acid No. 2208
  p-value: 0.0469
Gene SGK, Genbank NM_005627, Nucleic Acid No. 2209
  p-value: 0.028
Gene SH3BGRL2, Genbank AL035700, Nucleic Acid No. 1736
  p-value: 0.0258
Gene pp9099, Genbank NM_025201, Nucleic Acid No. 2169
  p-value: 0.0311
Of the 508 genes, deflazacort compared to prednisone
  number of genes significantly up-regulated: 30 genes
